Where two headings read alike, the source gives them in different places.
Legend:
Format in all cases: binding
[1] = target: T1, HeLa cell extract proteins (Homo sapiens, UniProt P39687); conditions: protein ANP32A; HeLa
T1 construct: endogenous in cells; host or cells: HeLa cell extract

[2] = target: T2, HeLa cell extract proteins (Homo sapiens, UniProt Q9NWZ8)
T2 construct: endogenous in cells; host or cells: HeLa cell extract
T2 sequence (Q9NWZ8 1-242): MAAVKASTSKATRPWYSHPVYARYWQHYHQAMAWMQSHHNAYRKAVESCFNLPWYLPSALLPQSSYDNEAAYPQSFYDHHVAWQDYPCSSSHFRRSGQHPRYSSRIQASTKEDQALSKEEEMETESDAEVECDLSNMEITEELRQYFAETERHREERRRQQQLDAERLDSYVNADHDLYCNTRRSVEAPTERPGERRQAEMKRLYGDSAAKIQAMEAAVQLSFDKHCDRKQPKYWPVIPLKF

[3] = target: T3, HeLa cell extract proteins (Homo sapiens, UniProt Q9NNW5)
T3 construct: endogenous in cells; host or cells: HeLa cell extract
T3 sequence (Q9NNW5 1-1121): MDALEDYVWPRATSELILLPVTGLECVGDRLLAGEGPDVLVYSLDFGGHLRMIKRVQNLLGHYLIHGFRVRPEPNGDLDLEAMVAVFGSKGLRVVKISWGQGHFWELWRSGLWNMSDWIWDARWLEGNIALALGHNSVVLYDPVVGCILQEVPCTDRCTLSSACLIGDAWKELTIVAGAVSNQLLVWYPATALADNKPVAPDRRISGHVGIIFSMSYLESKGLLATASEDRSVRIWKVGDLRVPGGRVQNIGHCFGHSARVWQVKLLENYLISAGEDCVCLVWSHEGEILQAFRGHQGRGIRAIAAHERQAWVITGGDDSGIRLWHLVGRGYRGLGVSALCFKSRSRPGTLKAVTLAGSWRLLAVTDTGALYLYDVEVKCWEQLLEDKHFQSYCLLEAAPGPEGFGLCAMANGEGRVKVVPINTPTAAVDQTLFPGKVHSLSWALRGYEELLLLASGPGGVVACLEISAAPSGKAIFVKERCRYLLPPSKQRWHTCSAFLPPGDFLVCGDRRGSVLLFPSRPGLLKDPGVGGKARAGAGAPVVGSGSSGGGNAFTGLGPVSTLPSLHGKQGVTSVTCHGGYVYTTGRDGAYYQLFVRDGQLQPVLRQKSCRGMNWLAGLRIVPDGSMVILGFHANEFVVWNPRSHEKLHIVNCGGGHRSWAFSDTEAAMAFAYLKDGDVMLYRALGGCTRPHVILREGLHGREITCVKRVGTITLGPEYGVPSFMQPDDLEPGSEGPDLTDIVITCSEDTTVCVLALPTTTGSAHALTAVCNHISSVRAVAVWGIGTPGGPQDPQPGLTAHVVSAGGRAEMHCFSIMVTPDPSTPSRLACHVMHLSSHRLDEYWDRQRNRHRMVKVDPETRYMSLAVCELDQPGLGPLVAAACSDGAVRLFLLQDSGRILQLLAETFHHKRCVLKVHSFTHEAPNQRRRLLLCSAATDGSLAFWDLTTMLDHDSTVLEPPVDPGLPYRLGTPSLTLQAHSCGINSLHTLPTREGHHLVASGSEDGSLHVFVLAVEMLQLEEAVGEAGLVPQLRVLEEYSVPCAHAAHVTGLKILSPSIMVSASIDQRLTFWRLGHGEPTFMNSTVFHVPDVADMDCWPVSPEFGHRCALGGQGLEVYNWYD

[4] = target: T4, HeLa cell extract proteins (Homo sapiens, UniProt Q6PJG6)
T4 construct: endogenous in cells; host or cells: HeLa cell extract
T4 sequence (Q6PJG6 1-821): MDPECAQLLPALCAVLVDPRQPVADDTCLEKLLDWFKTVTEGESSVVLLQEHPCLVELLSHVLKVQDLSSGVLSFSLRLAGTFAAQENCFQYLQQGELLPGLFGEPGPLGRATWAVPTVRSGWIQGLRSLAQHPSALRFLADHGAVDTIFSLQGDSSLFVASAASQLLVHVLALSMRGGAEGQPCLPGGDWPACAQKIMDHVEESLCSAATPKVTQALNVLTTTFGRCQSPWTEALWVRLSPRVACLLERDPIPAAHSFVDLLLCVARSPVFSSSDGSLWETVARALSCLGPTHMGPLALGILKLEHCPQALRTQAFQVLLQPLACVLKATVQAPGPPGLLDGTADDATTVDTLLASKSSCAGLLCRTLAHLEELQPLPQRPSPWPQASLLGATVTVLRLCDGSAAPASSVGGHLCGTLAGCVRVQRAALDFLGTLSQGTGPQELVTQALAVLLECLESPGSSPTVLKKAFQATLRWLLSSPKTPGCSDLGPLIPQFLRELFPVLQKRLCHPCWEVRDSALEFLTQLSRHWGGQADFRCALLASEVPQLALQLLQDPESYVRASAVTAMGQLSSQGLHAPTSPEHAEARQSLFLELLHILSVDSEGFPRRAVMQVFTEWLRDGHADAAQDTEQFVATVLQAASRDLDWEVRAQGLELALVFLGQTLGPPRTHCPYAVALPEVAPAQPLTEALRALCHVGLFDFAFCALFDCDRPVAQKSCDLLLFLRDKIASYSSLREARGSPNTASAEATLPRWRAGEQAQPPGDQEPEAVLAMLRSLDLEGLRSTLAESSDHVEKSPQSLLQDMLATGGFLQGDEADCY

T1 sequence (P39687 whole entry): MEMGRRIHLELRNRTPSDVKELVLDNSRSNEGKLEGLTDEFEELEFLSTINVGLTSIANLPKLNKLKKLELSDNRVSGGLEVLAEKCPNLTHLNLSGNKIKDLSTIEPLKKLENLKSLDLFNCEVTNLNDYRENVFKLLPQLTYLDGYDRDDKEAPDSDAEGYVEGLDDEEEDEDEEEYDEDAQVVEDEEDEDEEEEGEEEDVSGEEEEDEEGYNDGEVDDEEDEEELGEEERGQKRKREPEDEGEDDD

## Nc1nc2cccc(-c3ccccc3)c2n1Cc1ccc(Cl)c(Cl)c1 [compound 3]
[1]
  fold changes relative to vehicle control: 0.78

## CCCCCCOc1ccc(Cc2cnc(N)nc2N)cc1 [compound 1]
[1]
  fold changes relative to vehicle control: 1.44

## NCCCNc1ccc(C(=O)NC(CCC(=O)O)C(=O)O)cc1 (stereo not drawn) [compound 7]
[2]; HeLa, protein GEMIN8
  fold changes relative to vehicle control: 0.86
[3]; HeLa, protein WDR6
  fold changes relative to vehicle control: 1.06
[4]; HeLa, protein C7ORF27
  fold changes relative to vehicle control: 0.87

## CCCCCCOc1cccc(Cc2cnc(N)nc2N)c1 [compound 2]
[1]
  fold changes relative to vehicle control: 2.37

## NCCOCCOCC(=O)Nc1nc2ncc(CNc3ccc(C(=O)NC(CCC(=O)O)C(=O)O)cc3)nc2c(=O)[nH]1 (stereo not drawn) [compound 6]
[2]; HeLa, protein GEMIN8
  fold changes relative to vehicle control: 0.8
[3]; HeLa, protein WDR6
  fold changes relative to vehicle control: 1.19
[4]; HeLa, protein C7ORF27
  fold changes relative to vehicle control: 1.02

## Nc1nc2[nH]cc(CCc3ccc(C(=O)N[C@@H](CCC(=O)O)C(=O)O)cc3)c2c(=O)[nH]1 [PTX, pemetrexed]
[2]
  fold changes relative to vehicle control: 0.97
[3]
  fold changes relative to vehicle control: 1.1
[4]
  fold changes relative to vehicle control: 0.88

## Nc1nc2c(c(=O)[nH]1)N(C=O)C(CNc1ccc(C(=O)N[C@@H](CCC(=O)O)C(=O)O)cc1)CN2 (stereo partly drawn) [LEU, leucovorin]
[2]; HeLa, protein GEMIN8
  fold changes relative to vehicle control: 0.97
[3]; HeLa, protein WDR6
  fold changes relative to vehicle control: 0.96
[4]; HeLa, protein C7ORF27
  fold changes relative to vehicle control: 0.75

From paper PMC6199744, “Development of Chemical Proteomics for the Folateome and Analysis of the Kinetoplastid Folateome” (ACS Infectious Diseases, 2018)
